Measured values published in publication PMC7377239, “Cardiovascular Effects of Polychlorinated Biphenyls and Their Major Metabolites” (Environmental Health Perspectives, 2020).
Like-named read-outs stand apart in the source and are kept apart here.

Columns and labels:
HUVECs = assay: Tube formation (tubulogenesis) assay in HUVECs, 18 h; assay type: cell-based, human; conditions: Homo sapiens, HUVEC, 18 h; for activity at 0.1 µM: 0.10 µM
Method in brief: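 HUVECs (passage 1–5) seeded on reduced-growth-factor basement membrane and exposed to compounds overnight at 37°C, 5% CO2, in 2× maintenance medium with 12.5 ng/mL VEGF; 0.5% DMSO vehicle. Calcein AM-stained tube networks imaged and analysed; vehicle-normalized readouts fit to four-parameter logistic, POD set at one SD of vehicle means.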

[1] = system: iCell endothelial cells (human iPSC-derived ECs); assay: High-content imaging cytotoxicity in iCell endothelial cells, 24 h; assay type: cell-based; conditions: Homo sapiens, Endothelial cell, 24 hr; for viability at 0.1 µM / activity at 0.1 µM: 0.10 µM
Method in brief: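 Readouts were vehicle-normalised and fitted to a four-parameter logistic model. POD was set at one SD beyond 0.5% DMSO control means, and 100 µM was assigned when no response was seen. Cells were monolayers of iCell endothelial cells imaged after 24 h compound exposure using nuclear, mitochondrial and calcein dyes.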

[2] = HUVECs, 0.00 µM = 100.00, read-out: huvec.mtl.18hr
[3] = HUVECs, 0.00 µM = 100.00, read-out: huvec.tlps.18hr
[4] = HUVECs, 0.00 µM = 100.00, read-out: huvec.tta.18hr
[5] = HUVECs, 0.00 µM = 100.00, read-out: huvec.ttl.18hr
[6] = iPSC-EC, 0.00 µM control = 100.00, read-out: endo.cyto.24hr
[7] = iPSC-EC, 0.00 µM control = 100.00, read-out: endo.mito.24hr
[8] = iPSC-EC, 0.00 µM control = 100.00, read-out: endo.mitoint.24hr
[9] = iPSC-EC, 0.00 µM control = 100.00, read-out: endo.nma.24hr
[10] = iPSC-EC, 0.00 µM control = 100.00, read-out: endo.tc.24hrs
[11] = tube formation mtl, read-out: POD huvec.mtl.18hr
[12] = tube formation tlps, read-out: POD huvec.tlps.18hr
[13] = tube formation tta, read-out: POD huvec.tta.18hr
[14] = tube formation ttl, read-out: POD huvec.ttl.18hr
[15] = endothelial cells (endo), cyto, read-out: POD endo.cyto.24hr
[16] = endothelial cells (endo), mito, read-out: POD endo.mito.24hr
[17] = endothelial cells (endo), mitoint, read-out: POD endo.mitoint.24hr
[18] = endothelial cells (endo), nma, read-out: POD endo.nma.24hr
[19] = endothelial cells (endo), tc, read-out: POD endo.tc.24hr

COc1ccc(-c2cccc(Cl)c2)cc1Cl [4-OMe PCB11]
activity at 0.01 µM (HUVECs; [2]): 124% | activity at 0.01 µM (HUVECs; [3]): 137% | activity at 0.01 µM (HUVECs; [4]): 110% | activity at 0.01 µM (HUVECs; [5]): 93.8% | activity at 0.1 µM (HUVECs; [2]): 107% | activity at 0.1 µM (HUVECs; [3]): 117% | activity at 0.1 µM (HUVECs; [4]): 99.7% | activity at 0.1 µM (HUVECs; [5]): 89.8% | activity at 1 µM (HUVECs; [2]): 102% | activity at 1 µM (HUVECs; [3]): 99.7% | activity at 1 µM (HUVECs; [4]): 108% | activity at 1 µM (HUVECs; [5]): 99.4% | activity at 10 µM (HUVECs; [2]): 89.2% | activity at 10 µM (HUVECs; [3]): 97.9% | activity at 10 µM (HUVECs; [4]): 78.8% | activity at 10 µM (HUVECs; [5]): 67.3% | activity at 100 µM (HUVECs; [2]): 71% | activity at 100 µM (HUVECs; [3]): 60.6% | activity at 100 µM (HUVECs; [4]): 70.4% | activity at 100 µM (HUVECs; [5]): 60.2% | minimal effective concentration (HUVECs; HUVECs, top concentration 100.00 µM, read-out: huvec.mtl.18hr POD): 9.33 µM | minimal effective concentration (HUVECs; HUVECs, top concentration 100.00 µM, read-out: huvec.tlps.18hr POD): 25.8 µM | minimal effective concentration (HUVECs; HUVECs, top concentration 100.00 µM, read-out: huvec.tta.18hr POD): 100 µM | minimal effective concentration (HUVECs; HUVECs, top concentration 100.00 µM, read-out: huvec.ttl.18hr POD): 1.22 µM | viability at 0.01 µM [1, 6]: 88.3% | activity at 0.01 µM [1, 7]: 88.6% | activity at 0.01 µM [1, 8]: 94.9% | activity at 0.01 µM [1, 9]: 107% | viability at 0.01 µM [1, 10]: 88.3% | viability at 0.1 µM [1, 6]: 101% | activity at 0.1 µM [1, 7]: 100% | activity at 0.1 µM [1, 8]: 87% | activity at 0.1 µM [1, 9]: 104% | viability at 0.1 µM [1, 10]: 101% | viability at 1 µM [1, 6]: 99.8% | activity at 1 µM [1, 7]: 99.2% | activity at 1 µM [1, 8]: 87.7% | activity at 1 µM [1, 9]: 100% | viability at 1 µM [1, 10]: 99.8% | viability at 10 µM [1, 6]: 100% | activity at 10 µM [1, 7]: 100% | activity at 10 µM [1, 8]: 97.5% | activity at 10 µM [1, 9]: 101% | viability at 10 µM [1, 10]: 100% | viability at 100 µM [1, 6]: 97.3% | activity at 100 µM [1, 7]: 98% | activity at 100 µM [1, 8]: 98.6% | activity at 100 µM [1, 9]: 102% | viability at 100 µM [1, 10]: 97.3% | minimal effective concentration ([1]; iPSC-EC, top concentration 100.00 µM, read-out: endo.cyto.24hr POD): 100 µM | minimal effective concentration ([1]; iPSC-EC, top concentration 100.00 µM, read-out: endo.mito.24hr POD): 100 µM | minimal effective concentration ([1]; iPSC-EC, top concentration 100.00 µM, read-out: endo.mitoint.24hr POD): 100 µM | minimal effective concentration ([1]; iPSC-EC, top concentration 100.00 µM, read-out: endo.nma.24hr POD): 100 µM | minimal effective concentration ([1]; iPSC-EC, top concentration 100.00 µM, read-out: endo.tc.24hrs POD): 100 µM

Clc1cc(Cl)c(-c2cc(Cl)c(Cl)cc2Cl)cc1Cl [PCB 153, 2,2′,4,4′,5,5′-hexachlorobiphenyl]
minimal effective concentration (HUVECs; [11]): 19.8 µM | minimal effective concentration (HUVECs; [12]): 61.8 µM | minimal effective concentration (HUVECs; [13]): 8.87 µM | minimal effective concentration (HUVECs; [14]): 0.13 µM | minimal effective concentration [1, 15]: 18.6 µM | minimal effective concentration [1, 16]: 18.6 µM | minimal effective concentration [1, 17]: 0.07 µM | minimal effective concentration [1, 18]: 62.5 µM | minimal effective concentration [1, 19]: 49.2 µM

Oc1ccc(-c2cccc(Cl)c2)cc1Cl [4-OH-PCB 11]
minimal effective concentration (HUVECs; [11]): 7.09 µM | minimal effective concentration (HUVECs; [12]): 35.3 µM | minimal effective concentration (HUVECs; [13]): 100 µM | minimal effective concentration (HUVECs; [14]): 4.15 µM | minimal effective concentration [1, 15]: 43.6 µM | minimal effective concentration [1, 16]: 43.6 µM | minimal effective concentration [1, 17]: 13 µM | minimal effective concentration [1, 18]: 9.66 µM | minimal effective concentration [1, 19]: 62.1 µM
